Experiment [1] concerns the target T1, recombinant chromatin (p53- and p300-dependent) (Homo sapiens, UniProt Q09472).
T1 construct: made in house
Description: Cell-free recombinant chromatin-templated histone modification and transcription assay. In kind it is biochemical. The note with it: acetyl-CoA replaced by L-lactyl-CoA. On the procedure: To examine the potential activity of p300 as a histone Kla writer in cells, we over-expressed p300 in HEK293T cells and observed a modest increase in histone Kla levels. In contrast, p300 deletion in HCT116 and HEK293T cells decreased histone Kla levels.
Purification of recombinant proteins and chromatin assembly were performed as previously described (Tang et al., Cell 154, 297-310, doi:10.1016/j.cell.2013.06.027 (2013)). The chromatin-templated histone modification and transcription assays were as described previously (Tang et al., Cell 154, 297-310, doi:10.1016/j.cell.2013.06.027 (2013)), except that lactyl-CoA was used in place of acetyl-CoA and [α-32P] CTP was used in place of [α-32P]-UTP. The H3KR, H4KR, H2AKR, and H2BKR histone mutants were the same as previously described (Tang et al., Cell 154, 297-310, doi:10.1016/j.cell.2013.06.027 (2013)). Histone modifications were monitored by immunoblot and transcription products were monitored by autoradiography as described (Tang et al., Cell 154, 297-310, doi:10.1016/j.cell.2013.06.027 (2013)).

The subject of experiment [2] is MCF-7 cells. Description: Intracellular lactate in MCF-7 cells (lactate colorimetric kit). In kind it is cell-based, human. As to conditions: 24 hours. On the procedure: (§1) Intracellular lactate (a and d) and histone Kla levels (b and c) were measured from MCF-7 cells cultured in different glucose concentrations or different 2-DG concentrations in the presence of 25 mM glucose for 24 hours. Lactate was measured by a lactate colorimetric kit; n=3 biological replicates; statistical significance was determined using one-way ANOVA followed by Sidak's multiple comparisons test. Immunoblots was carried out using acid-extracted histone samples. The pan anti-Kla and anti-Kac immunoblots indicate molecular weights between 10 kD and 15 kD. e, Regulation of glycolysis and lactate production by diverse metabolic modulators. f, Intracellular lactate levels were measured in MCF-7 cells treated with indicated glycolysis modulators for 24 hours. N=3 biological replicates; statistical significance was determined using one-way ANOVA followed by Dunnett's multiple comparisons test. g-i, Immunoblots of acid extracted histones (Rotenone and DCA) or whole cell lysates (Oxamate) from MCF-7 cells in response to different glycolysis modulators. j, Intracellular lactate levels were measured in MCF-7 cells in response to hypoxia. N=4 biological replicates; statistical significance was determined using unpaired t test (Two-tailed). k, Immunoblots of acid extracted histones from MCF-7 cells under hypoxia (1% oxygen) for indicated time points. a, d, f, j, Graphs show mean with s.e.m. b, c, g, h, i, k, Data represent three independent experiments. […]

For experiment [3], the system named is MCF-7 cells. Description: Hypoxia-induced lactate production and histone Kla. In kind it is cell-based, human. The note with it: hypoxia (1% oxygen); cell line not given. On the procedure: as §1, with “hypoxia.” for “hypoxia. N=4 biological replicates; statistical significance was determined using unpaired t test (Two-tailed). k, Immunoblots of acid extracted histones from MCF-7 cells under hypoxia (1% oxygen) for indicated time points. a, d, f, j, Graphs show mean with s.e.m. b, c, g, h, i, k, Data represent three independent experiments.”

Experiment [4] deals with MCF-7 cells. The experiment in a line: Histone Kla levels in MCF-7 cells by immunoblot (pan anti-Kla). In kind it is cell-based, human. On the procedure: as §1
(A western blot detects proteins with antibodies after separation by electrophoresis.)

Experiment [5] deals with MCF-7 cells. The experiment in a line: U-13C6 glucose labeling followed by MS/MS of histone Kla and Kac in MCF-7 cells. In kind it is cell-based, human. On the procedure:
The peptide samples were loaded onto a home-made capillary column (10 cm length×[…], 3 μm particle size, Dr. Maisch GmbH, Ammerbuch, Germany) connected to an EASY-nLC 1000 system (Thermo Fisher Scientific, Waltham, MA). Peptides were separated and eluted with a gradient of 2% to 90% HPLC buffer B (0.1% formic acid in acetonitrile, v/v) in buffer A (0.1% formic acid in water, v/v) at a flow rate of 200 nL/min over 60 min (34 min for coelution studies). The eluted peptides were then ionized and analyzed by a Q-Exactive mass spectrometer (Thermo Fisher Scientific, Waltham, MA). Full MS was acquired in the Orbitrap mass analyzer over the range m/z 300-1400 with a resolution of 70,000 at m/z 200. The 12 most intense ions with charge ≥2 were fragmented with normalized collision energy of 27 and tandem mass spectra were acquired with a mass resolution of 17500 at m/z 200.
MCF-7 cells were cultured in DMEM high glucose media plus 10% FBS. To be labeled by isotopic lactate, cells were treated with 10 mM of ^13C3 sodium L-lactate for 24 hours. To be labeled by isotopic glucose, cells were switched to DMEM No-Glucose media (Gibco) for 24 hours, followed by supplementation with 25 mM of U-^13C6 D-glucose and continued culturing for three passages. Histones were extracted, digested with trypsin, immunoprecipitated using a pan anti-Kla antibody, and analyzed by HPLC/MS/MS as described above.

The subject of experiment [6] is BMDM cells. Description: M1 polarization (LPS+IFNγ) of BMDM cells: lactate, histone Kla, gene expression, ChIP-qPCR. Type of experiment: cell-based, mouse. On the procedure:
Intracellular lactate levels were measured using a lactate colorimetric kit (a) and global histone Kla levels were measured by immunoblots (b) 24 h-post M1 polarization. c, Gene expression were analyzed by RT-qPCR at indicated time points after M1 polarization. a-c, N=3 biological replicates. d, H3K18la occupancy was analyzed by ChIP-qPCR 24 h-post M1 polarization. Data represent three technical replicates from pooled samples. e-h, Exogeneous lactic acid (25 mM) was added to BMDM cells 4 h post-M1 polarization (LPS+IFNγ), and cells were collected at indicated time points post-M1 polarization for intracellular lactate measurement (e), histone Kla immunoblot analysis (f), gene expression analysis (g) and H3K18la occupancy analysis by ChIP-qPCR (h). e, N=3 biological replicates, f, Data represent three independent experiments. g, RPKM: Reads Per Kilobase of transcript per Million mapped reads (RPKM). N=4 biological replicates. h, Data represent three technical replicates from pooled samples. a, c, d, e, g, h, Graphs show mean with s.e.m; statistical significance was determined using Multiple t tests corrected using Holm-Sidak method (a, c, e, g).
All animal use and experiments performed were approved by Institutional Animal Care and Use Committee (ACUP #72209) at the University of Chicago. Ldha^fl/fl mice (Jackson laboratory, 030112) and LysMcre mice (Jackson laboratory, 004781) were used to generate LysMcre^+/−Ldha^fl/fl and littermate control LysMcre^−/− Ldha^fl/fl mice. The following primers were used for genotyping: Ldha forward: […] (SEQ ID NO: 88) and Ldha reverse: […] (SEQ ID NO: 89). LysMcre: […] (SEQ ID NO: 90), LysM Common: […] (SEQ ID NO: 91) and LysM WT: […] (SEQ ID NO: 92). Macrophages were derived from bone marrow of 8-week male C57BL/6 mice following the published procedure. To induce an M1 or M2 phenotype, BMDM cells were stimulated with 5 ng/ml of LPS and 12 ng/ml of IFNγ or 20 ng/ml of interleukin 4, for 24 hours or the indicated time. To infect BMDM cells with bacteria, overnight cultures of E. coli, A. baumannii, or P. aeruginosa were diluted in RPMI-1640 and added to BMDM cells in 6-well plates at 2 and 20 multiplicity of infection. A control plate was either infected with paraformaldehyde-killed bacteria or treated with 5 ng/mL lipopolysaccharide (LPS) in the absence of bacteria. The plates were centrifuged at 2170 rpm for 30 min to promote infection, followed by a 30 min incubation in a humidified incubator at 37° C. under 5% CO2. To kill extracellular bacteria, the medium overlying the confluent cell monolayer was replaced with fresh media containing gentamicin at 100 μg/mL and the plates were further incubated for 1 h. Following incubation, media were removed from infected cells and replaced with fresh media containing 25 μg/mL of gentamicin. For consistency, LPS-treated cells and cells infected with dead bacteria were also treated with gentamicin. Cells were cultured for 24 h before lysis. Allocation of BMDM cells into different treated groups were randomized and not blinded.
Total RNA was extracted from BMDM cells activated as indicated using a RNeasy Plus Mini Kit (74134, Qiagen, Hilden, Germany). Two to four micrograms of total RNA were used as starting material to prepare libraries using Illumina TruSeq Stranded mRNA Library Prep Kit Set A (RS-122-2101, Illumina, San Diego, CA). The libraries' size was selected by using the Agencourt AMPure XP beads (A63882, Beckman Coulter, Brea, CA), with average size of 400 bp. The libraries were sequenced using Illumina HiSeq 4000 (pair end 50 bp).
Native ChIP was carried out following the published protocol (Cuddapah et al., Cold Spring Harb Protoc 2009, pdb prot5237, doi:10.1101/pdb.prot5237 (2009)) with spiked-in for normalization purpose. Spike-in was carried out according to vendor protocols (#61686, Active motif, Carlsbad, CA). […]

For experiment [7], the system named is BMDMs. Description: U-13C6 glucose labeling of histone Kla and Kac in BMDMs during M1 polarization. In kind it is cell-based, mouse. The source says: All animal use and experiments performed were approved by Institutional Animal Care and Use Committee (ACUP #72209) at the University of Chicago. Ldha^fl/fl mice (Jackson laboratory, 030112) and LysMcre mice (Jackson laboratory, 004781) were used to generate LysMcre^+/−Ldha^fl/fl and littermate control LysMcre^−/− Ldha^fl/fl mice. The following primers were used for genotyping: Ldha forward: […] (SEQ ID NO: 88) and Ldha reverse: […] (SEQ ID NO: 89). LysMcre: […] (SEQ ID NO: 90), LysM Common: […] (SEQ ID NO: 91) and LysM WT: […] (SEQ ID NO: 92). Macrophages were derived from bone marrow of 8-week male C57BL/6 mice following the published procedure. To induce an M1 or M2 phenotype, BMDM cells were stimulated with 5 ng/ml of LPS and 12 ng/ml of IFNγ or 20 ng/ml of interleukin 4, for 24 hours or the indicated time. To infect BMDM cells with bacteria, overnight cultures of E. coli, A. baumannii, or P. aeruginosa were diluted in RPMI-1640 and added to BMDM cells in 6-well plates at 2 and 20 multiplicity of infection. […]
The peptide samples were loaded onto a home-made capillary column (10 cm length×[…], 3 μm particle size, Dr. Maisch GmbH, Ammerbuch, Germany) connected to an EASY-nLC 1000 system (Thermo Fisher Scientific, Waltham, MA). […] The eluted peptides were then ionized and analyzed by a Q-Exactive mass spectrometer (Thermo Fisher Scientific, Waltham, MA). […]

Where [8] appears, read: M1 polarization, exogenous lactate.
[9] abbreviates: exogenous lactic acid 25 mM added 4 h post-M1 polarization.

T1 sequence (Q09472 whole entry): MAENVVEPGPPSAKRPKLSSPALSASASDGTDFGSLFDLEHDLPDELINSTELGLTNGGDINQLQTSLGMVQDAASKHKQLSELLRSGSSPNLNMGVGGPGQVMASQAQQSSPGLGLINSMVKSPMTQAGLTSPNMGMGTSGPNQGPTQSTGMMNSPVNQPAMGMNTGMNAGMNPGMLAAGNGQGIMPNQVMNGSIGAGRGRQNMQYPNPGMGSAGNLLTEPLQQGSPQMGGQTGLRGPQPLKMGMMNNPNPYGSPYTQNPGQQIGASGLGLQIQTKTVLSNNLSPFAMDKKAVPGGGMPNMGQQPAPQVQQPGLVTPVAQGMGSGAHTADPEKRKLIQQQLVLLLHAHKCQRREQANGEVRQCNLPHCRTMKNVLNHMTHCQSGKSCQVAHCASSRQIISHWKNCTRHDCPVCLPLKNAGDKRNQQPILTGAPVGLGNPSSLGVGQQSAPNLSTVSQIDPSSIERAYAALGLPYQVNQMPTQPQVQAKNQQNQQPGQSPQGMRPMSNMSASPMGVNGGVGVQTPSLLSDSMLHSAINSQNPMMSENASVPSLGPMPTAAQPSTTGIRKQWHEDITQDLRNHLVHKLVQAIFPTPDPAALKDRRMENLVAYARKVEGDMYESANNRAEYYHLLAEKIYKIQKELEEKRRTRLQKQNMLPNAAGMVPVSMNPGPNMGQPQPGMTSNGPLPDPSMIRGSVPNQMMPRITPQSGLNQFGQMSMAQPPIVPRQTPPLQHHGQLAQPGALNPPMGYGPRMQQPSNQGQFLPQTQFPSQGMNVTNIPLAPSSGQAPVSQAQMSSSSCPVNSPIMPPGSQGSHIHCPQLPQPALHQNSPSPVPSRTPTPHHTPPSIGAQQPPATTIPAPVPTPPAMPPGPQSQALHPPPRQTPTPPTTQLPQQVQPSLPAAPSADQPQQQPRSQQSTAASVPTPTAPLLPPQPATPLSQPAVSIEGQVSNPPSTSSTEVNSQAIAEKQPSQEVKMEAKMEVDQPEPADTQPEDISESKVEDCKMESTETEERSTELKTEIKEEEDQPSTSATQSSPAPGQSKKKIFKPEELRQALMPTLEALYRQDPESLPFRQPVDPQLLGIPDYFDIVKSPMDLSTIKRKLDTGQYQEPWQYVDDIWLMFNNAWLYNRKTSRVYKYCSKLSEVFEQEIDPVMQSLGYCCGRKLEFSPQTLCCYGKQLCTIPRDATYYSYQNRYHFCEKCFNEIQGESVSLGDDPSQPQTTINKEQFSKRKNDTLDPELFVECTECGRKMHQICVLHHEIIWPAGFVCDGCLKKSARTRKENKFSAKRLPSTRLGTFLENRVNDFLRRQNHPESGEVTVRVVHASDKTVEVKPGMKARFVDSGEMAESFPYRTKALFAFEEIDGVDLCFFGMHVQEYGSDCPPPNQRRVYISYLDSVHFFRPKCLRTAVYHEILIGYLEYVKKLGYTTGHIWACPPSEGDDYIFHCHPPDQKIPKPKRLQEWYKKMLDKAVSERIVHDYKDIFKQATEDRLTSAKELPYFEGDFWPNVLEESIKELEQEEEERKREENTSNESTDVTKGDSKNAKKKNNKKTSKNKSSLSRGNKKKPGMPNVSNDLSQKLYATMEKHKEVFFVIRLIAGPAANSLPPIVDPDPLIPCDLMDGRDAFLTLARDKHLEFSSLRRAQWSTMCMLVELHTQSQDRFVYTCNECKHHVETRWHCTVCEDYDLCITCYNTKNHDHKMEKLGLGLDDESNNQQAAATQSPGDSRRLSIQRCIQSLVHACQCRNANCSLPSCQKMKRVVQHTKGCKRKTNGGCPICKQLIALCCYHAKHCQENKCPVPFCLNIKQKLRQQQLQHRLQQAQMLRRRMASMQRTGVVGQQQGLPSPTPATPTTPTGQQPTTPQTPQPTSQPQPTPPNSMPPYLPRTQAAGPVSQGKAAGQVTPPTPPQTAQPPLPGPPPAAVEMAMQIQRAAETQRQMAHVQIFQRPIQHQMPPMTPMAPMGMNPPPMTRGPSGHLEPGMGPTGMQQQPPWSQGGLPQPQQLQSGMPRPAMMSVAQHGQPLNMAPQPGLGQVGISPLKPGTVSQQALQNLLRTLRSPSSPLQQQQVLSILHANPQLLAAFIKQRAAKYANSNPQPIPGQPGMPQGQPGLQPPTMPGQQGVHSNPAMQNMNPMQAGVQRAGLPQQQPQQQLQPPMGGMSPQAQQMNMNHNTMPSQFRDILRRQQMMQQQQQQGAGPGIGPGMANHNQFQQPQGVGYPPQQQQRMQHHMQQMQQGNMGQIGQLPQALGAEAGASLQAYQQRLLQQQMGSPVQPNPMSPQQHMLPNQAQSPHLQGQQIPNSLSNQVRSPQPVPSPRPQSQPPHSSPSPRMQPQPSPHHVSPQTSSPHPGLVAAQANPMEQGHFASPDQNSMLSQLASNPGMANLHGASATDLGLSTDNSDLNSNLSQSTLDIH

Turning to `C[C@H](O)C(=O)SCCNC(=O)CCNC(=O)[C@H](O)C(C)(C)COP(=O)(O)OP(=O)(O)OC[C@H]1O[C@@H](n2cnc3c(N)ncnc32)[C@H](O)[C@@H]1OP(=O)(O)O` [L-lactyl-CoA], the transcription entry in experiment [1] (autoradiography) was “a corresponding effect on transcription”. In experiment [1] (immunoblot), the “H3 and H4 lactylation” value is “robust p53-dependent, p300-mediated H3 and H4 lactylation”.

`O=C([O-])C(Cl)Cl.[Na+]` [DCA, Sodium dichloroacetate]: in experiment [2], the “intracellular lactate levels / lactate production” value was “decreased”. Also, in experiment [3], the “induction of histone Kla by hypoxia” value is “attenuated” and the “induction of lactate production by hypoxia” value is on record as “attenuated”. Besides, in experiment [4], the “histone Kla levels” value is “lowered”. Also, in experiment [5], the “incorporation of 13C into histone Kac” value is given as “but not Kac was decreased” and the “incorporation of 13C into histone Kla” value is “decreased”.

In the case of `C=C(C)[C@H]1Cc2c(ccc3c2O[C@@H]2COc4cc(OC)c(OC)cc4[C@@H]2C3=O)O1` [rotenone], the “intracellular lactate levels / lactate production” value in experiment [2] is recorded as “increased”. Besides, the “histone Kla levels” value in experiment [4] is given as “increased”.

For `C[C@H](O)C(=O)O` [lactate, L-(+)-lactic acid], the “histone Kla levels” value in experiment [4] is on record as “elevated in a dose-dependent fashion”. Further, in experiment [6] (setting [8]), the “early pro-inflammatory gene expression” value is “did not affect” and the “expression of other M2-like genes, such as Vegfa” value is “enhanced”. In experiment [6] (setting [9]), the Arg1 expression entry was “induced” and the intracellular lactate entry is on record as “increased”. For the same compound, in experiment [6] (exogenous lactic acid 25 mM added 4 h post-M1 polarization, immunoblot), the “histone Kla levels” value is reported as “increased”. The “Kla levels at the Arg1 promoter” value in experiment [6] (exogenous lactic acid 25 mM, H3K18la ChIP-qPCR) was “induced”.

Consider `O=CC[C@@H](O)[C@H](O)[C@H](O)CO` [2-DG, 2-deoxy-D-glucose], for which, in experiment [2], the “intracellular lactate levels / lactate production” value is recorded as “decreased”. Further, the “histone Kla levels” value in experiment [4] is given as “decreased”.

As to GNE-140, the “13C incorporation into histone Kla” value in experiment [7] is reported as “reduced”.

For the origin of these results see patent publication US12416639B2, “Reagents and methods for detecting protein lysine lactylation” (Jingjie PTM Biolab (Hangzhou) Co., Inc, priority 2018, dated 2025).
